Assay: recombinant UMI read abundance after kanamycin selection (control-corrected) (log10(CPM+1)); higher = more efficient recombination; extreme values may be limits of the assay; sequences stand for … in AGTGCAGAGAAAATCGGCCAGTTTTCTCTGCCTGCAGTCCGCATGCCGTGGGACCCCTTGGGTTCTAACCTGTTGCCTAGATTTATGCAGCGGACTGCCTTTCTCCCAAAGTGATAAACCGG…AGGTTGGTTTCACT; site = the 11-nt donor
Protocol: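 Pooled E. coli donor-specificity screen for the IS621 bridge recombinase. Each library member carries a reprogrammed 11-nt donor and a full-length LE bridge RNA expressed in cis from the natural promoter, with a paired donor-binding loop (8-nt LDG + 4-nt RDG) and a target-binding loop fixed to T5. It is co-electroporated with a T5 target plasmid; recombinase is induced with 0.07 mM IPTG and recombinants are selected on kanamycin. UMIs are counted as CPM, averaged over two biological replicates and corrected by the unselected control. Molecule = full bridge RNA written as DNA, built from the T5 scaffold: LDG = donor specificity nt 1-8, RDG = reverse complement of nt 8-11.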

Point of comparison: “AATGTAACATGGACCGGTTTTCCCGGTAATCCGTATTTGCT (site AATGTAACTTG)”, “recombinant UMI read abundance (log10)” value 0.00409. Against it:
- AAGTGCACATGGACCGGTTTTCCCGGTAATCCGTATTTGGT (site AAGTGCACTAC) — higher, 0.762
- AAGTGTACATGGACCGGTTTTCCCGGTAATCCGTATTTGTG (site AAGTGTACTCA) — higher, 0.962
- AATAAACCATGGACCGGTTTTCCCGGTAATCCGTATTTGCC (site AATAAACCTGG) — within 0.2 log units, 0
- AATAAACCATGGACCGGTTTTCCCGGTAATCCGTATTTGTG (site AATAAACCTCA) — within 0.2 log units, 0.00291
- AATAATTCATGGACCGGTTTTCCCGGTAATCCGTATTTGAT (site AATAATTCTAT) — higher, 0.955
- AATAGCACATGGACCGGTTTTCCCGGTAATCCGTATTTGGC (site AATAGCACTGC) — higher, 2.04
- AATATGTCATGGACCGGTTTTCCCGGTAATCCGTATTTGAC (site AATATGTCTGT) — higher, 0.953
- AATATGTCATGGACCGGTTTTCCCGGTAATCCGTATTTGAC (site AATCTGTCTGT) — within 0.2 log units, 0
- AATATGTCATGGACCGGTTTTCCCGGTAATCCGTATTTGAC (site AATGTGTCTGT) — within 0.2 log units, 0
- AATATGTCATGGACCGGTTTTCCCGGTAATCCGTATTTGAC (site AATTTGTCTGT) — within 0.2 log units, 0
- AATCCCACATGGACCGGTTTTCCCGGTAATCCGTATTTGCT (site AATCCCACTAG) — higher, 1.77
- AATCCTCCATGGACCGGTTTTCCCGGTAATCCGTATTTGAT (site AATCCTCCTAT) — higher, 0.344
- AATCGAGCATGGACCGGTTTTCCCGGTAATCCGTATTTGGA (site AATCGAGCTTC) — higher, 0.474
- AATCTAACATGGACCGGTTTTCCCGGTAATCCGTATTTGCT (site AATATAACTAG) — within 0.2 log units, 0
- AATCTAACATGGACCGGTTTTCCCGGTAATCCGTATTTGCT (site AATCTAACTAG) — within 0.2 log units, 0
- AATCTAACATGGACCGGTTTTCCCGGTAATCCGTATTTGCT (site AATGTAACTAG) — higher, 0.245
- AATCTAACATGGACCGGTTTTCCCGGTAATCCGTATTTGCT (site AATTTAACTAG) — within 0.2 log units, 0
- AATCTGTCATGGACCGGTTTTCCCGGTAATCCGTATTTGAC (site AATATGTCTGT) — within 0.2 log units, 0
- AATCTGTCATGGACCGGTTTTCCCGGTAATCCGTATTTGAC (site AATCTGTCTGT) — within 0.2 log units, 0
- AATCTGTCATGGACCGGTTTTCCCGGTAATCCGTATTTGAC (site AATGTGTCTGT) — within 0.2 log units, 0.00511
- AATCTGTCATGGACCGGTTTTCCCGGTAATCCGTATTTGAC (site AATTTGTCTGT) — within 0.2 log units, 0
- AATGAAACATGGACCGGTTTTCCCGGTAATCCGTATTTGCT (site AATGAAACTAG) — higher, 1.94
- AATGAAACATGGACCGGTTTTCCCGGTAATCCGTATTTGCT (site AATGCAACTAG) — higher, 0.479
- AATGAAACATGGACCGGTTTTCCCGGTAATCCGTATTTGCT (site AATGGAACTAG) — within 0.2 log units, 0
- AATGAAACATGGACCGGTTTTCCCGGTAATCCGTATTTGCT (site AATGTAACTAG) — higher, 1.65
- AATGAAGCATGGACCGGTTTTCCCGGTAATCCGTATTTGTC (site AATGAAGCTGA) — higher, 2.09
- AATGGATCATGGACCGGTTTTCCCGGTAATCCGTATTTGAC (site AATGGATCTGT) — higher, 2.04
- AATGTAACATGGACCGGTTTTCCCGGTAATCCGTATTTGCT (site AAAGTAACTAG) — higher, 1.76
- AATGTAACATGGACCGGTTTTCCCGGTAATCCGTATTTGCT (site AACGTAACTAG) — higher, 2.22
- AATGTAACATGGACCGGTTTTCCCGGTAATCCGTATTTGCT (site AAGGTAACTAG) — higher, 1.84
- AATGTAACATGGACCGGTTTTCCCGGTAATCCGTATTTGCT (site AATATAACTAG) — higher, 2.07
- AATGTAACATGGACCGGTTTTCCCGGTAATCCGTATTTGCT (site AATCTAACTAG) — higher, 0.276
- AATGTAACATGGACCGGTTTTCCCGGTAATCCGTATTTGCT (site AATGAAACTAG) — within 0.2 log units, 0.0158
- AATGTAACATGGACCGGTTTTCCCGGTAATCCGTATTTGCT (site AATGCAACTAG) — higher, 0.239
- AATGTAACATGGACCGGTTTTCCCGGTAATCCGTATTTGCT (site AATGGAACTAG) — within 0.2 log units, 0
- AATGTAACATGGACCGGTTTTCCCGGTAATCCGTATTTGCT (site AATGTAACTAA) — within 0.2 log units, 0.0161
- AATGTAACATGGACCGGTTTTCCCGGTAATCCGTATTTGCT (site AATGTAACTAC) — within 0.2 log units, 0.00758
- AATGTAACATGGACCGGTTTTCCCGGTAATCCGTATTTGCT (site AATGTAACTAG) — higher, 2.26
- AATGTAACATGGACCGGTTTTCCCGGTAATCCGTATTTGCT (site AATGTAACTAT) — within 0.2 log units, 0.0618
- AATGTAACATGGACCGGTTTTCCCGGTAATCCGTATTTGCT (site AATGTAACTCG) — within 0.2 log units, 0.0789
- AATGTAACATGGACCGGTTTTCCCGGTAATCCGTATTTGCT (site AATGTAACTGG) — higher, 1.14
- AATGTAACATGGACCGGTTTTCCCGGTAATCCGTATTTGCT (site AATGTACCTAG) — within 0.2 log units, 0
- AATGTAACATGGACCGGTTTTCCCGGTAATCCGTATTTGCT (site AATGTAGCTAG) — higher, 0.332
- AATGTAACATGGACCGGTTTTCCCGGTAATCCGTATTTGCT (site AATGTATCTAG) — higher, 1.67
- AATGTAACATGGACCGGTTTTCCCGGTAATCCGTATTTGCT (site AATGTCACTAG) — within 0.2 log units, 0.198
- AATGTAACATGGACCGGTTTTCCCGGTAATCCGTATTTGCT (site AATGTGACTAG) — higher, 0.422
- AATGTAACATGGACCGGTTTTCCCGGTAATCCGTATTTGCT (site AATGTTACTAG) — higher, 1.14
- AATGTAACATGGACCGGTTTTCCCGGTAATCCGTATTTGCT (site AATTTAACTAG) — higher, 0.682
- AATGTAACATGGACCGGTTTTCCCGGTAATCCGTATTTGCT (site ACTGTAACTAG) — higher, 1.84
- AATGTAACATGGACCGGTTTTCCCGGTAATCCGTATTTGCT (site AGTGTAACTAG) — higher, 1.51
- AATGTAACATGGACCGGTTTTCCCGGTAATCCGTATTTGCT (site ATTGTAACTAG) — higher, 2.07
- AATGTAACATGGACCGGTTTTCCCGGTAATCCGTATTTGCT (site CATGTAACTAG) — higher, 2.37
- AATGTAACATGGACCGGTTTTCCCGGTAATCCGTATTTGCT (site GATGTAACTAG) — higher, 1.57
- AATGTAACATGGACCGGTTTTCCCGGTAATCCGTATTTGCT (site TATGTAACTAG) — higher, 2.39
- AATGTGACATGGACCGGTTTTCCCGGTAATCCGTATTTGCT (site AATGTAACTAG) — higher, 2.04
- AATGTGACATGGACCGGTTTTCCCGGTAATCCGTATTTGCT (site AATGTCACTAG) — higher, 0.731
- AATGTGACATGGACCGGTTTTCCCGGTAATCCGTATTTGCT (site AATGTGACTAG) — higher, 2.65
- AATGTGACATGGACCGGTTTTCCCGGTAATCCGTATTTGCT (site AATGTTACTAG) — higher, 0.751
- AATGTGTCATGGACCGGTTTTCCCGGTAATCCGTATTTGAA (site AATGTGTCTAT) — higher, 0.324
- AATGTGTCATGGACCGGTTTTCCCGGTAATCCGTATTTGAA (site AATGTGTCTCT) — higher, 0.204
- AATGTGTCATGGACCGGTTTTCCCGGTAATCCGTATTTGAA (site AATGTGTCTGT) — within 0.2 log units, 0
- AATGTGTCATGGACCGGTTTTCCCGGTAATCCGTATTTGAA (site AATGTGTCTTT) — higher, 2.11
- AATGTGTCATGGACCGGTTTTCCCGGTAATCCGTATTTGAC (site AAAGTGTCTGT) — within 0.2 log units, 0
- AATGTGTCATGGACCGGTTTTCCCGGTAATCCGTATTTGAC (site AACGTGTCTGT) — within 0.2 log units, 0
- AATGTGTCATGGACCGGTTTTCCCGGTAATCCGTATTTGAC (site AAGGTGTCTGT) — higher, 1.02
- AATGTGTCATGGACCGGTTTTCCCGGTAATCCGTATTTGAC (site AATATGTCTGT) — higher, 0.433
- AATGTGTCATGGACCGGTTTTCCCGGTAATCCGTATTTGAC (site AATCTGTCTGT) — within 0.2 log units, 0
- AATGTGTCATGGACCGGTTTTCCCGGTAATCCGTATTTGAC (site AATGAGTCTGT) — within 0.2 log units, 0
- AATGTGTCATGGACCGGTTTTCCCGGTAATCCGTATTTGAC (site AATGCGTCTGT) — within 0.2 log units, 0
- AATGTGTCATGGACCGGTTTTCCCGGTAATCCGTATTTGAC (site AATGGGTCTGT) — within 0.2 log units, 0
- AATGTGTCATGGACCGGTTTTCCCGGTAATCCGTATTTGAC (site AATGTATCTGT) — higher, 1.2

From the supplement of paper PMC11208160
